Reference: paper PMC12567141, “Design, Synthesis and Biological Evaluation of Pyrazolopyrimidine Derivatives as Aryl Hydrocarbon Receptor Antagonists for Colorectal Cancer Immunotherapy” (Pharmaceutics, 2025)
pIC50: −log10 of the molar value.

Legend:
Assay type in all cases: cell-based
AhR = AhR (Danio rerio, UniProt Q9YGV3); test: IC50 determination, Cyp1a dual luciferase reporter assay in transfected COS-7 cells; conditions: AhR2/ARNT-1c/Cyp1a-luciferase, TCDD 10 nM
Method: All experiments were conducted as described previously unless stated otherwise. COS-7 cells were seeded onto 24-well plate until approximately 65% confluency. The cells were transfected with ARNT-1c expression plasmid (50 ng), AhR2 expression plasmid (5 ng), Cyp1a-firefly luciferase reporter plasmid (20 ng) and pRL-TK Renilla luciferase plasmid (2 ng) using Lipofectamine 3000 (Thermo Fisher Scientific) according to the manufacturer’s protocol. The pEGFP-C1 plasmid (Clontech, Tempe, AZ, USA) was used to assess the transfection efficiency. At 5 h post transfection, serially diluted test compounds at indicated concentration were added to the cells. Simultaneously, TCDD (10 nM) or indicated compounds with the highest concentration were added in the control wells. At 1 h post compound treatment, TCDD (10 nM) was added to all wells except the control wells. At 18 h post TCDD treatment, the medium was removed, and the cells washed with Dulbecco’s phosphate buffered saline (DPBS) and harvested using 1x Passive Lysis Buffer (Promega, Madison, WI, USA). The dual luciferase assay was carried out using a Dual-Luciferase Reporter Assay System (Promega, Madison, WI, USA) and an Orion L Microplate Luminometer (Titertek Berthold, Pforzheim, BW, Germany) as per manufacturer’s protocol. The relative light unit (RLU) values were normalized and expressed as toxic induced ratio (TIR). IC50 was determined using Prism 9.0 (GraphPad Software).

[1] = tested on: normal cells (CHO, L929, CCD-18Co); test: Cell viability assay (CCK-8), normal cells; conditions: 24 h, 7k: CHO, SR-1: CCD-18Co
Method: Chinese hamster ovary CHO cells, mouse fibroblast L929 cells, normal colon CCD18-Co cells, monkey kidney fibroblast COS-7 cells, colorectal cancer cells including HCT-116, RKO, SW480, SW620, CT26, and MC38 cells were purchased from ATCC (American Type Culture Collection). CHO, L929, Cos-7, and all cancer cells were maintained in RPMI 1640 or DMEM supplemented with 10% FBS (Gibco FBS; Thermo Fisher Scientific, Hanover Park, IL, USA) and 1% streptomycin/penicillin. CCD18-Co cells were cultured in high-glucose Dulbecco modified Eagle medium containing 10% FBS and 1% streptomycin/penicillin. All cells were grown in 5% CO2 at 37 °C. Mycoplasma testing was regularly performed every month using the BioMycoX Mycoplasma PCR Detection Kit (CellSafe, Yongin, Republic of Korea).
Cell viability was analyzed using a Cell Counting Kit-8 (Dojindo molecular technologies, Rockville, MD, USA). Cells were seeded in 96-well plates and treated with different concentrations of 7k. At the indicated time points, CCK-8 (10 μL/well) reagents were added to the cells, followed by further incubation at 37 °C for 90 min. The absorbance at 450 nm was measured using a plate reader (BioTek instruments, Winooski, VT, USA).

HCT-116 cells = test: Clonogenic assay; conditions: colorectal cancer cells vs vehicle-treated cells
Method: Cells were plated into 6-well plates and left for 48 h. After treatment with 5, 10 μM 7k for 24 h, the drug-containing medium was discarded, and cells were washed twice with PBS and left in complete culture medium for the time corresponding to six doublings. Finally, cells were fixed in 4% Paraformaldehyde (PFA) solution and stained with 0.05% crystal violet.

[2] = tested on: AhR nuclear translocation in MC38 cells; test: Kynurenine-induced AhR nuclear translocation (Western blot); conditions: kynurenine-treated MC38 cells, 24 h
Method: Cells were harvested and washed twice in cold PBS. Cytoplasmic and nuclear protein were isolated by NE-PER^TM (Thermo Fisher Scientific, Waltham, MA, USA). The procedure was completed according to the kit instructions.
For the extraction of total protein, cells were treated with 7k for 24 h in a CO2 incubator at 37 °C and washed twice with phosphate-buffered saline (PBS). Cell pellets were lysed using radioimmunoprecipitation assay (RIPA) buffer (Thermo Fisher Scientific) containing a protease and phosphatase inhibitor cocktail kit (Thermo Fisher Scientific). The lysed cells were briefly vortexed at intervals and subsequently centrifuged at 13,000× g at 4 °C. The protein sample was quantified with the bicinchoninic acid (BCA) protein assay kit (Thermo Fisher Scientific).
Equal amounts of proteins were loaded onto 10% sodium dodecyl sulfate polyacrylamide gel electrophoresis and transferred onto PVDF membranes (Millipore, Billerica, MA, USA). The membrane was blocked with 5% skim milk in Tris-buffered saline (TBS) containing Tween-20 (TBS-T) for an hour and probed with the respective primary antibodies in 5% BSA overnight at 4 °C. Following incubation, the membrane was probed with horseradish peroxidase (HRP)-conjugated secondary antibodies for an hour at room temperature. […]

[3] = tested on: PD-L1 expression in MC38 and CT26 cancer cells; test: PD-L1 expression by FACS in IFNγ-treated colorectal cancer cells
Method: (§1) For analysis of PD-L1 expression in colorectal cancer cells, MC38 in 24-well plates were treated with IFNγ (10 ng/mL) for 24 h and incubated with 5 and 10 μM for 24 h. Cells were collected and stained with APC-conjugated PD-L1 Ab at 4 °C for 30 min (BioLegend). After washing with FACS buffer (Biolegend) three times, the cells were analysed using Becton Dickinson LSRFortessa^TM and analyzed with FlowJo software. Isotype-matched monoclonal antibodies were used as controls. The data were analysed using Flowjo analysis software (FlowJo LLC, Ashland, OR, USA).

[4] = tested on: PD-1 expression in Jurkat/PD-1 cells; test: PD-1 expression by FACS in PHA-treated Jurkat/PD-1 cells
Method: as §1, with “of PD-1” for “of PD-L1”, “in PD-1-overexpressing Jurkat T cells (Jurkat/PD-1 cells), Jurkat/PD-1 cells” for “in colorectal cancer cells, MC38”, “with 2 μg/mL Phytohaemagglutinin (PHA)” for “with IFNγ (10 ng/mL) for 24 h”, “μM 7k” for “μM”, “collected were” for “collected and”, “APC-conjugated PD-1” for “APC-conjugated PD-L1”

AhR, sequence (Q9YGV3 1-1027): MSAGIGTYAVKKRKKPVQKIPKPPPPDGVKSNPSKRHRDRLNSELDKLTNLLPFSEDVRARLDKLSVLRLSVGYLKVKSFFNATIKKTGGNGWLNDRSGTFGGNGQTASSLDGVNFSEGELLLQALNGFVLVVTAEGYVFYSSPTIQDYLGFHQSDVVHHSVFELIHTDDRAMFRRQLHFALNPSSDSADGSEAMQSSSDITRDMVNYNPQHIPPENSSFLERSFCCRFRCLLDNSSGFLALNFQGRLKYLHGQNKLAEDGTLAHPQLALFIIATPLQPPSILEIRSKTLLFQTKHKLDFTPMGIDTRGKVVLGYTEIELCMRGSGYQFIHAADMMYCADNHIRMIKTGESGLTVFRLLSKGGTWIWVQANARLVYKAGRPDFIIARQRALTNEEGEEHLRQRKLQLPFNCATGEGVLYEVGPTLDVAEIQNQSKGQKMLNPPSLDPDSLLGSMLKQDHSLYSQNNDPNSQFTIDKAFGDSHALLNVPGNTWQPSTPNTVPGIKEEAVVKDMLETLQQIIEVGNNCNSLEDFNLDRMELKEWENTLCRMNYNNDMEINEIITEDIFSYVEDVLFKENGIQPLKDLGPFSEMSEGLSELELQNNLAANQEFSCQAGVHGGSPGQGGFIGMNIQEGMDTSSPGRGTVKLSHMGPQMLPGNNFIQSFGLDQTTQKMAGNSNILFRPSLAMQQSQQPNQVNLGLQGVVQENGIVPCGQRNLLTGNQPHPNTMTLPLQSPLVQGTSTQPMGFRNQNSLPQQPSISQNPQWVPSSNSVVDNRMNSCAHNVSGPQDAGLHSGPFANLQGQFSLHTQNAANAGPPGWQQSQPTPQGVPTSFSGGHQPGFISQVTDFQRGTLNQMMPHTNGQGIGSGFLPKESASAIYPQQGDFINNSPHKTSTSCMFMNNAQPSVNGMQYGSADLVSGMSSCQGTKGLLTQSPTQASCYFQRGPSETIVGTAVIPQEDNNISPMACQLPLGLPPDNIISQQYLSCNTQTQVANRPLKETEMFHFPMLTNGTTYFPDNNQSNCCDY
AhR, sequence (Q64FF9 1-503 partner): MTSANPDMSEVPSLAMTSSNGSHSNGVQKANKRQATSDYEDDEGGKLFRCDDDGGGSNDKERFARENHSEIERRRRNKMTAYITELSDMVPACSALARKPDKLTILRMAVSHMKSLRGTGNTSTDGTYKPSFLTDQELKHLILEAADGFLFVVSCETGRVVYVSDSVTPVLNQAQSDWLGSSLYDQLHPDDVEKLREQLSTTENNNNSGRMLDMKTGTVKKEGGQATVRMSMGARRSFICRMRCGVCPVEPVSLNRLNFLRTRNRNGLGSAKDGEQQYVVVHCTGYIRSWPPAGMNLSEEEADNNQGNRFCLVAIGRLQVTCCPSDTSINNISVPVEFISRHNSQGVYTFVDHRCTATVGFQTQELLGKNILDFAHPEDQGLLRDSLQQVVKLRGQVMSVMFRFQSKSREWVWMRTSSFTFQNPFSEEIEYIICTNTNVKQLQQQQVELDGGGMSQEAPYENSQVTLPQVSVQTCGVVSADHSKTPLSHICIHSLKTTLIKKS

CC(C)n1cc2nc(-c3cc(F)cc(F)c3)nc(NCCc3c[nH]c4ccccc34)c2n1 [Compound 7k, N-(2-(1H-indol-3-yl)ethyl)-5-(3,5-difluorophenyl)-2-isopropyl-2H-pyrazolo [4,3-d]pyrimidin-7-amine]
pIC50 (AhR): 7.86 | cell viability of normal cells [1]: few antiproliferative effects | colony formation ability (HCT-116 cells): significant decrease in the colony formation ability | AhR expression in the nucleus [2]: decreased AhR expression in the nucleus | PD-L1 expression [3]: dose-dependent downregulation of PD-L1 expression | PD-1 expression [4]: reduced PD-1 expression
